Measurements taken from patent US7087631B2, “Aryltetrazole compounds, and compositions thereof” (Inotek Pharmaceuticals Corporation, priority 2002, dated 2006).

Experiments:
severe hemorrhagic shock = conditions: canine, cited from earlier work; for benefit (survival): given alone after shock had been produced
hemorrhagic shock = conditions: canine model of hemorrhagic shock; cited from earlier work
[1] = test system: thioacetamide model of hepatic failure; assay: Toxic liver injury model (thioacetamide model of hepatic failure), serum AST; type: in vivo; conditions: mice; for serum AST levels (result in words): summary of the table; for Percent Inhibition of Serum AST Levels: thioacetamide 400 mg/kg i.p., mean ±SEM (n=7-10)
Experimental: Illustrative 5-Aryltetrazole Compounds exert hepatoprotective effects in a thioacetamide model of hepatic failure. […] […] Results are expressed as percent inhibtion, mean ±SEM (n=7-10). Studies were conducted as described in Biochim. Biophys. Acta. 1536(1):21-30 (2001).

xanthine oxidase = xanthine oxidase (Homo sapiens, UniProt P47989); assay: Xanthine oxidase inhibitory activity, 96 well plate, kinetic reading at 295 nm; type: biochemical
gut ischemia reperfusion = assay: Gut ischemia reperfusion-induced hyperpermeability and mortality; type: in vivo; conditions: mice; for Survival % (6 h): 6 hours of reperfusion, control 60; for Survival % (2 days): 2 days of reperfusion, control 0; for Gut Permeability: intraperitoneal, control 100%
Experimental: Illustrative 5-Aryltetrazole Compounds exert protective effects in various models of organ ischemia and reperfusion. For example, intraperitoneal administration of illustrative 5-Aryltetrazole Compounds retards the progression of gut ischemia reperfusion-induced hyperpermeability and mortality in mice. Results are expressed as % decrease in gut hyperpermeability and as mortality as observed after 6 hours and 2 days of reperfusion. Studies were conducted as described in Shock, 14(2): 134-141 (2000). There was a notable dose-dependent effect on gut hyperpermeability and there was an improvement in survival rate, as tested at the highest dose of both levels.

[2] = test system: collagen-induced arthritis; assay: Collagen-induced arthritis; type: in vivo; conditions: mice; for % Incidence / Mean Severity: collagen-induced arthritis
Experimental: An illustrative 5-Aryltetrazole Compound exerts protective effects in a model of collagen-induced arthritis in mice. Results are expressed as incidence and severity over time. Studies were conducted as described in Inflamm. Res. 50(11):561-569 (2001). The results illustrate that the administration of Compound JO, an illustrative 5-Aryltetrazole Compound, reduced incidence of collagen-induced arthritis in mice.

xanthine oxidase, sequence (P47989 whole entry, species assumed, the tested form may be a part): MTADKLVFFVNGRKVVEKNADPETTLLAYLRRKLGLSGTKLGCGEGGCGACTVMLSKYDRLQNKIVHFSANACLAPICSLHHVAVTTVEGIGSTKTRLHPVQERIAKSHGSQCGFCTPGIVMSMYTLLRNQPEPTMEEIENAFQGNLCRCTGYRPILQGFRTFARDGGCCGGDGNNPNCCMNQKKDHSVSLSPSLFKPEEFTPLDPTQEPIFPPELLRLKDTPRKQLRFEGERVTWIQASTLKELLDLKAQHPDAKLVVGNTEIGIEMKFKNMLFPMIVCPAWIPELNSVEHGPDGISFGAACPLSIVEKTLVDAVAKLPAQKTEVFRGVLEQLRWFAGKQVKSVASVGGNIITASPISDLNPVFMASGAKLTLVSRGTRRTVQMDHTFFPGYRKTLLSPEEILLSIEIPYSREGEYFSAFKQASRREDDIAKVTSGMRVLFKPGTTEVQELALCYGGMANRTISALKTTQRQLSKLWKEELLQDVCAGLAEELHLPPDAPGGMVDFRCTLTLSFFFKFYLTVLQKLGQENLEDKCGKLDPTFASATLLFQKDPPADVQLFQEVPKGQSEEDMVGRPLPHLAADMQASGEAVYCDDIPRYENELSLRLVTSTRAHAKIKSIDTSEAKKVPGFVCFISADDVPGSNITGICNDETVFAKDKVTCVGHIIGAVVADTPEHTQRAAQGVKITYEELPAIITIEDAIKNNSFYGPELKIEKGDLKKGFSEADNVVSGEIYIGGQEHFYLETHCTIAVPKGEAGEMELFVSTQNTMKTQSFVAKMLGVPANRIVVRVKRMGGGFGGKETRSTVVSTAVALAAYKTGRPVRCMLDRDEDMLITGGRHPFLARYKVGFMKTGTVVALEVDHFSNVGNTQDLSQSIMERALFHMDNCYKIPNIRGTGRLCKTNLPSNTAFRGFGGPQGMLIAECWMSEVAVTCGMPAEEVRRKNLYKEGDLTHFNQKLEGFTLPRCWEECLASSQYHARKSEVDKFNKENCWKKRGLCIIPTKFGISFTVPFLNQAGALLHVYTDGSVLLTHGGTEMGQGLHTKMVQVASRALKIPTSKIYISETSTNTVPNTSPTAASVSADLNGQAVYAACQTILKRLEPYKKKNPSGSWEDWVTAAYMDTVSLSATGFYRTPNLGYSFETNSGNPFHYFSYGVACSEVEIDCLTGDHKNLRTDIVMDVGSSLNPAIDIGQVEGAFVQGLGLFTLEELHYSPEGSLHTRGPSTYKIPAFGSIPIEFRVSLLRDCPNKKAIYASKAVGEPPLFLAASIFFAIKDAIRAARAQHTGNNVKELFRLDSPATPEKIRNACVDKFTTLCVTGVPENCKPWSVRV

| Structure (SMILES) | serum AST levels (result in words) [1] | Percent Inhibition of Serum AST Levels ([1]; single oral dose 10 mg/kg) [%] | PERCENT XANTHINE OXIDASE INHIBITION (xanthine oxidase; compound concentration 0.03 μM) [%] | PERCENT XANTHINE OXIDASE INHIBITION (xanthine oxidase; compound concentration 0.1 μM) [%] | PERCENT XANTHINE OXIDASE INHIBITION (xanthine oxidase; compound concentration 1 μM) [%] | Percent Inhibition of Serum AST Levels ([1]; single oral dose 3 mg/kg) [%] | also measured |
| --- | --- | --- | --- | --- | --- | --- | --- |
| Oc1ncnc2[nH]ncc12 [allopurinol] |  |  |  |  |  |  | benefit (survival) (severe hemorrhagic shock): no benefit; increase in survival (severe hemorrhagic shock; pre-treatment): 6 fold; survival (result in words) (hemorrhagic shock): significantly improved survival |
| O=C(O)c1ccc(NC(=O)c2ccc(-c3nnn[nH]3)cc2)cc1 [Compound IS] | inhibit serum AST levels | 33 ± 5 | 44 | 68 | 97 |  |  |
| O=c1[nH]cnc2nc[nH]c12 [hypoxanthine] |  |  |  |  |  |  | benefit (survival) (severe hemorrhagic shock): no benefit |
| CC(C)Cc1ccc(NC(=O)c2ccc(-c3nnn[nH]3)cc2)cc1 [Compound IG] | inhibit serum AST levels | 46 ± 8 | 33 | 59 | 93 | 25 ± 4 | Survival % (6 h) (gut ischemia reperfusion; 30 mg/kg): 87%; Survival % (2 days) (gut ischemia reperfusion; 30 mg/kg): 20%; Gut Permeability (gut ischemia reperfusion; 3 mg/kg): 73%; Gut Permeability (gut ischemia reperfusion; 10 mg/kg): 69%; Gut Permeability (gut ischemia reperfusion; 30 mg/kg): 47% |
| O=C(Nc1ccccc1)c1ccc(-c2nn[nH]n2)cc1 [Compound IC] | inhibit serum AST levels | 20 ± 5 | 60 | 81 | 100 | 3 ± 8 |  |
| CC(C)(C)c1ccc(NC(=O)c2ccc(-c3nnn[nH]3)cc2)cc1 [Compound JO] |  | 36 ± 12 | 18 | 36 | 83 | 24 ± 9 | incidence of collagen-induced arthritis (result in words) ([2]; after 33 days, versus untreated mice): significant decrease; % Incidence ([2]; day 25): 20%; Mean Severity ([2]; day 25): 0; % Incidence ([2]; day 27): 35%; Mean Severity ([2]; day 27): 0; % Incidence ([2]; day 29): 45%; Mean Severity ([2]; day 29): 3; % Incidence ([2]; day 31): 75%; Mean Severity ([2]; day 31): 8; % Incidence ([2]; day 33): 85%; Mean Severity ([2]; day 33): 8; collagen-induced arthritis (result in words) ([2]; summary): inhibits collagen-induced arthritis; Survival % (6 h) (gut ischemia reperfusion; 30 mg/kg): 87%; Survival % (2 days) (gut ischemia reperfusion; 30 mg/kg): 13%; Gut Permeability (gut ischemia reperfusion; 30 mg/kg): 39% |
| CC(C)c1ccc(NC(=O)c2ccc(-c3nnn[nH]3)cc2)cc1 [Compound IP] | inhibit serum AST levels | 41 ± 8 | 28 | 52 | 92 | 23 ± 8 |  |
